Laboratory results as given in patent US12611395B2, “Use of carbamate compound for preventing or treating trigeminal neuralgia” (SK BIOPHARMACEUTICALS CO., LTD., priority 2016, dated 2026).

Columns and labels:
[1] = tested on: formalin-induced pain behavioral response in rats; experiment: Formalin-induced facial pain behavioral response in rats; assay type: in vivo, rats (Sprague-Dawley); settings: 5 and 20 mg/kg intraperitoneal 30 minutes before 5% formalin, rat, FIG. 5
Description: (§1) Mature male rats (Sprague-Dawley, 200-230 g) were used. The experimental animals were maintained under conditions of light-and-darkness cycle of 12 hours, a temperature of 22 to 25° C., a relative humidity of 40 to 60%, and free access to water and food.
5% Formalin (50 μl) was injected subcutaneously into the vibrissa pad on the left facial area of the rats using an insulin syringe (31 gauge). The behavioral response of rubbing or scratching the maxillofacial area was observed from 10 minutes after injection, accumulating in a unit of 5 minutes, for a total of 35 minutes (Park M K. et. al., Peripheral administration of NR2 antagonists attenuates orofacial formalin-induced nociceptive behavior in rats, Prog Neuropsychopharmacol Biol Psychiatry, 2011).
The vehicle, the test compound (5 and 20 mg/kg) and carbamazepine (25 mg/kg) were intraperitoneally administered, and after 30 minutes 5% formalin was injected into the left facial area.
(§2) The effect of the compounds was expressed as mean±standard error, and statistical significance was recognized when data were p<0.05 difference using one-way ANOVA and Dunnett's test.

[2] = tested on: rats in which trigeminal neuralgia was induced by the trigeminal nerve root compression; experiment: Air-puff test of mechanical allodynia in rats with trigeminal neuralgia induced by trigeminal nerve root compression; assay type: in vivo, rats (Sprague-Dawley); settings: rat; for analgesic effect on mechanical allodynia induced by trigeminal nerve root compression: FIG. 2
Description: as §1
Rats were anesthetized with a mixed solution of ketamine (40 mg/kg) and xylazine (4 mg/kg), fixed on a stereotaxic instrument, and 4% agar solution was injected into the left trigeminal nerve roots using a stainless steel injection tube to compress the trigeminal nerve roots. 10 μl of 4% agar solution was slowly injected over the trigeminal nerve roots for 5 seconds, and the injection tube was removed after 5 minutes and then sutured (Jeon H J. et. al., A novel trigeminal neuropathic pain model: compression of the trigeminal nerve root produces prolonged nociception in rats, Prog Neuropsychopharmacol Biol Psychiatry. 2012).
(§3) To observe the behavioral response, the animals were placed in a cage and adapted for 20 minutes in a quiet area, followed by an air-puff test to assess mechanical allodynia to air stimulation. Aggressive behaviors such as head movement to avoid air stimulation or biting in response to the air stimulation applied to the facial region which is dominated by the trigeminal nerve were used as evaluation criteria for the behavioral reflex. A total of 10 trials and 50% or more responses were considered as the threshold of stimulation.
(§4) On the 7th day after surgery, the test compound (10, 30 and 50 mg/kg) and carbamazepine (25 and 50 mg/kg) were intraperitoneally administered to the test animals in which allodynia had been induced. At 30 minutes, 60 minutes, 90 minutes, 2 hours, 3 hours, 4 hours and 6 hours after administration, the pharmacological effects of the drugs were evaluated by observing changes in the behavioral responses.
as §2

[3] = tested on: rats in which facial pain was induced by inferior alveolar nerve injury; experiment: Air-puff test of mechanical allodynia in rats with facial pain induced by inferior alveolar nerve injury; assay type: in vivo, rats (Sprague-Dawley); settings: rat; for analgesic effect on mechanical allodynia induced by inferior alveolar nerve injury: FIG. 4
Description: as §1, §3
as §4, with “test compound (5, 10 and 20” for “test compound (10, 30 and 50”, “10 and 20 mg/kg) and” for “30 and 50 mg/kg) and”
as §2

[4] = patients treated for trigeminal neuralgia; cited from earlier work
[5] = 30 and 50 mg/kg intraperitoneal
[6] = overall conclusion, intraperitoneal

| SMILES | pain behavioral response as compared with the vehicle-administered group [1] | inhibition of mechanical allodynia induced by trigeminal nerve root compression ([2]; 30 and 50 mg/kg intraperitoneal, 7th day after surgery, FIG. 1) | time after administration for which analgesic effect was maintained [2, 5] | time after administration from which analgesic effect could be observed [2, 5] | analgesic action in the trigeminal neuralgia animal model compared with carbamazepine [2, 6] | time after administration from which significant pain-relieving effect was observed ([3]; 20 mg/kg intraperitoneal) | time for which pain-relieving effect was maintained ([3]; 20 mg/kg intraperitoneal) | inhibition of mechanical allodynia induced by inferior alveolar nerve injury ([3]; 5, 10 and 20 mg/kg intraperitoneal, 7th day after surgery, FIG. 3) | time after administration from which the effect was significant ([3]; 5 and 10 mg/kg intraperitoneal) | time after administration up to which the effect was significant ([3]; 5 and 10 mg/kg intraperitoneal) | analgesic action in the inferior alveolar nerve injury-induced facial pain model compared with carbamazepine [3, 6] | patients with side effects drowsiness, ataxia, nausea and anorexia [4] | analgesic effect on mechanical allodynia induced by trigeminal nerve root compression ([2]; 25 mg/kg intraperitoneal) | analgesic effect on mechanical allodynia induced by trigeminal nerve root compression ([2]; 50 mg/kg intraperitoneal) | analgesic effect on mechanical allodynia induced by inferior alveolar nerve injury ([3]; 25 mg/kg intraperitoneal) | time after administration at which the analgesic effect completely disappeared ([3]; 50 mg/kg intraperitoneal) | analgesic effect on mechanical allodynia induced by inferior alveolar nerve injury ([3]; 50 mg/kg intraperitoneal) |
| --- | --- | --- | --- | --- | --- | --- | --- | --- | --- | --- | --- | --- | --- | --- | --- | --- | --- |
| NC(=O)O[C@@H](Cn1ncnn1)c1ccccc1Cl [test compound] | statistically significant decrease | significantly inhibited | 6 h | 60 min | better analgesic action than carbamazepine | 90 min | 4 h | significantly inhibited | 90 min | 2 h | equivalent to or greater than carbamazepine |  |  |  |  |  |  |
| NC(=O)N1c2ccccc2C=Cc2ccccc21 [carbamazepine, reference compound] |  |  |  |  |  |  |  |  |  |  |  | about 40% | no analgesic effect | transient low analgesic effect | no analgesic effect | 2 h | significant analgesic effect |
